Source: ChEMBL document CHEMBL4043137, “Structure-based design, synthesis and in vitro antiproliferative effects studies of novel dual BRD4/HDAC inhibitors” (Bioorg Med Chem Lett, 2017)

Tests used:
[1] = target: T1, Bromodomain-containing protein 4 (Homo sapiens, UniProt O60885); assay: Inhibition of human BRD4 bromo domain 2 at 5 uM
[2] = target: T1, Bromodomain-containing protein 4; assay: Inhibition of BRD4 (unknown origin)
[3] = target: T1, Bromodomain-containing protein 4; assay: Inhibition of human BRD4 bromo domain 2 at 0.5 uM
MV4-11 = assay: cells; type: functional, cell-based; details: Homo sapiens, MV4-11, 72 h
Description: Antiproliferative activity against human MV4-11 cells after 72 hrs by MTT assay

OCI-AML2 = assay: cells; type: functional, cell-based; details: Homo sapiens, OCI-AML2, 72 h
Description: Antiproliferative activity against human OCI-AML2 cells after 72 hrs by MTT assay

OCI-AML-3 = assay: cells; type: functional, cell-based; details: Homo sapiens, OCI-AML-3, 72 h
Description: Antiproliferative activity against human OCI-AML3 cells after 72 hrs by MTT assay

[4] = target: T1, Bromodomain-containing protein 4; assay: Inhibition of human BRD4 bromo domain 1
Histone deacetylase 1 = Histone deacetylase 1 (Homo sapiens, UniProt Q13547); assay: Inhibition of recombinant human HDAC1 after 30 mins by fluorescence assay
[5] = target: T1, Bromodomain-containing protein 4; assay: Inhibition of human BRD4 bromo domain 2

Sequence of Histone deacetylase 1 (Q13547 whole entry, the tested form may be a part): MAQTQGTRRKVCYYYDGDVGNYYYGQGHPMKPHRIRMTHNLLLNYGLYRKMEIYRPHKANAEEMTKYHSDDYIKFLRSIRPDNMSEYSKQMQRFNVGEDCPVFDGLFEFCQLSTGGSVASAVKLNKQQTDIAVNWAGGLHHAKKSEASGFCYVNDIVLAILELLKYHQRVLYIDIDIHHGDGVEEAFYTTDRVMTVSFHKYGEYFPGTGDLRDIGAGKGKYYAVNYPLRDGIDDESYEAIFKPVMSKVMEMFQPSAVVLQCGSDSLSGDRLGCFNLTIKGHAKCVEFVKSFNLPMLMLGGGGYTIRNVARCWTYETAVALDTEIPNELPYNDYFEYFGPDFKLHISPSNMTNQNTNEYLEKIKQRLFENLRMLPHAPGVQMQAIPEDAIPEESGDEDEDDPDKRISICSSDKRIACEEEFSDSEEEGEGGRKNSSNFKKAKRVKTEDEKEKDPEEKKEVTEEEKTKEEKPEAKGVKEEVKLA

Structure (SMILES) | inhibition [1] | IC50 [2] | inhibition [3] | IC50 (MV4-11) | IC50 (OCI-AML2) | IC50 (OCI-AML-3) | IC50 [4] | IC50 (Histone deacetylase 1) | IC50 [5]
O=C(CCCCCCC(=O)Nc1ccccc1)NO [VORINOSTAT] | 10% | 10 nM | 2% | – | – | – | – | – | –
COc1cc(OC)c2c(=O)[nH]c(-c3cc(C)c(OCCCC(=O)NO)c(C)c3)nc2c1 | 90% | – | 42% | 5000 nM | 4530 nM | 5530 nM | – | – | –
COc1cc(OC)c2c(=O)[nH]c(-c3cc(C)c(OCCCCCCCC(=O)NO)c(C)c3)nc2c1 | 99% | – | 59% | 2220 nM | 2210 nM | 1830 nM | – | – | –
COc1cc(OC)c2c(=O)[nH]c(-c3cc(C)c(OCCCCCC(=O)NO)c(C)c3)nc2c1 | 97% | – | 90% | 920 nM | 980 nM | 670 nM | – | – | –
COc1cc(OC)c2c(=O)[nH]c(-c3cc(C)c(Oc4ccc(C(=O)NO)cn4)c(C)c3)nc2c1 | 93% | – | 51% | 1390 nM | 6360 nM | 3040 nM | – | – | –
C/C=C1\NC(=O)[C@H]2CSSCC/C=C/[C@H](CC(=O)N[C@H](C(C)C)C(=O)N2)OC(=O)[C@H](C(C)C)NC1=O [ROMIDEPSIN] | – | 36 nM | – | – | – | – | – | – | –
COc1cc(OC)c2c(=O)[nH]c(-c3cc(C)c(OCCCCC(=O)NO)c(C)c3)nc2c1 | 91% | – | 73% | 1670 nM | 1520 nM | 1090 nM | > 5000 nM | 32 nM | 225 nM
COc1cc(OC)c2c(=O)[nH]c(-c3cc(C)c(OCc4ccc(/C=C/C(=O)NO)cc4)c(C)c3)nc2c1 | 83% | – | 62% | 560 nM | 380 nM | 430 nM | > 5000 nM | 204 nM | 401 nM
COc1cc(OC)c2c(=O)[nH]c(-c3ccc(OCCCCC(=O)NO)cc3)nc2c1 | – | – | – | 9880 nM | 12200 nM | 9310 nM | – | – | –
COc1cc(OC)c2c(=O)[nH]c(-c3cc(C)c(OCCO)c(C)c3)nc2c1 [APABETALONE] | – | – | – | 4480 nM | 8310 nM | 7170 nM | – | – | –
COc1cc(OC)c2c(=O)[nH]c(-c3ccc(OCc4ccc(/C=C/C(=O)NO)cc4)cc3)nc2c1 | – | – | – | 1970 nM | 1780 nM | 1800 nM | – | – | –
COc1cc(OC)c2c(=O)[nH]c(-c3ccc(OCCCCCC(=O)NO)cc3)nc2c1 | – | – | – | 4280 nM | 13600 nM | 11100 nM | – | – | –
COc1cc(OC)c2c(=O)[nH]c(-c3cc(C)c(O)c(C)c3)nc2c1 | 98% | – | 87% | – | – | – | – | – | –
COc1cc(OC)c2c(=O)[nH]c(-c3cc(C)c(OC/C=C/C(=O)NO)c(C)c3)nc2c1 | 93% | – | 41% | – | – | – | – | – | –
Cc1[nH]c2ccccc2c1CCNCc1ccc(/C=C/C(=O)NO)cc1 [PANOBINOSTAT] | – | 5 nM | – | – | – | – | – | – | –
COc1cc(OC)c2c(=O)[nH]c(-c3cc(C)c(OCCCCCCC(=O)NO)c(C)c3)nc2c1 | 88% | – | 29% | – | – | – | – | – | –
